≈ marks a conversion by molar mass, not a printed value. Entries after “also recorded” stand apart in the source; their conditions may differ. Where two headings read alike, the source gives them in different places.
Legend:
Format in all cases: physicochemical
[1] = Dynamic vapor sorption (DVS) with post-DVS XRPD; details: for Post DVS XRPD (crystalline form after DVS): XRPD of the post-DVS sample
Protocol: Samples were analyzed using an Aquadyne DVS-2 gravimetric water sorption analyzer. The relative humidity was adjusted between 2-95% and the weight of the sample was continuously monitored and recorded with respect to the relative humidity and time.
The material was subjected under Dynamic Vapor Sorption (DVS, FIG. 6).

[2] = Solid form stability test (up to 7 days) under high humidity, XRPD
Protocol: In one aspect, provided herein is 2-((2-chlorophenyl)(phenyl)amino)-N-(7-(hydroxyamino)-7-oxoheptyl)pyrimidine-5-carboxamide of Form I (referred to herein as “Form I”). Form I (of Compound (I)) was observed under a polarized microscope and its crystalline nature was determined by using X-ray powder diffraction (XRPD) and Pattern A was assigned to it for identification (See Example 3). The chemical structure of the material was confirmed by proton-nuclear magnetic resonance (^1H-NMR) and the thermal characterization of the material was carried out by differential scanning calorimetry (DSC) and thermal gravimetric analysis (TGA) (see Examples 2 and 3). […] The XRPD analysis of this form including peak identification is found in Example 11 (See FIG. 40).

[3] = Stability of crystalline forms under dry (vacuum, 45° C.) and humid (RH >95%) conditions, XRPD; details: for XRPD pattern after drying at 45° C. (under vacuum): dried under vacuum at 45° C.; for Form change after exposing the dried sample to high humidity conditions (XRPD): after drying at 45° C. under vacuum, then high humidity (RH >95%)
Protocol: For dry conditions, the sample was dried under vacuum at 45° C. followed by XRPD analysis. Later the sample was subjected to high humidity conditions (RH >95%) followed by XRPD analysis.
The MeOH and DCM solvates of Compound (I) were dried on XRPD plates under vacuum at 45° C. and were analyzed by XRPD the following day.
Pattern E was dried at 45° C. under vacuum overnight and analyzed by XRPD. The following day, it was subjected to high humidity conditions (>95%) and later analyzed by XRPD the next day. […] FIG. 26 illustrates the XRPD comparison of dried and humid samples with Compound (I), Form I, Pattern A.

[4] = Solubility assessment of Form I, gravimetric, slurried 48 h in solvents/solvent mixtures; details: thermodynamic from solid
Protocol: The Solubility of Form I was measured gravimetrically in 15 different solvents and solvent mixtures at 15 and 45° C. About 75 mg of the compound was dispensed in 10 volumes (750 μL) of the solvent/solvent mixture and slurried for 48 h.
The vials were centrifuged. The supernatant was collected and left for slow evaporation under vacuum at 45° C. The solids obtained after evaporation were used to determine the solubility of Form I and analyzed by XRPD for any new forms.

[5] = Dynamic vapor sorption (DVS) with post-DVS XRPD; details: relative humidity between 0-95%
[6] = Form change on heating or on storage at room temperature, XRPD
[7] = exposed to high humidity conditions

O=C(CCCCCCNC(=O)c1cnc(N(c2ccccc2)c2ccccc2Cl)nc1)NO [Form I, 2-((2-chlorophenyl)(phenyl)amino)-N-(7-(hydroxyamino)-7-oxoheptyl)pyrimidine-5-carboxamide]
Hygroscopicity [1]: low hygroscopicity | Post DVS XRPD (crystalline form after DVS) [1]: no change in the crystalline form; also recorded: Pattern A, | Solid form stability under high humidity (XRPD) [2]: stability of Form I up to seven days; also recorded: stable under high humidity up to a week | XRPD pattern after drying at 45° C. (under vacuum) [3]: Pattern A, | solubility at 48 h ([4]; aqueous with cosolvent or surfactant or cyclodextrin, EtOH:H2O (1:1), temperature not stated, read-out: Solubility (moderately soluble)): 10 to 55 mg/mL (≈ 21.4 to 118 mM) | solubility at 48 h ([4]; aqueous with cosolvent or surfactant or cyclodextrin, acetone:H2O (1:1), temperature not stated, read-out: Solubility (moderately soluble)): 10 to 55 mg/mL (≈ 21.4 to 118 mM) | solubility at 48 h ([4]; organic solvent or mixture, Acetone, 15° C., read-out: Solubility): 2 mg/mL (≈ 4.27 mM) | solubility at 48 h ([4]; organic solvent or mixture, Acetone, 45° C., read-out: Solubility): 11 mg/mL (≈ 23.5 mM) | solubility at 48 h ([4]; organic solvent or mixture, Acetone:H2O (95:5), 15° C., read-out: Solubility): 21 mg/mL (≈ 44.9 mM) | solubility at 48 h ([4]; organic solvent or mixture, Acetone:H2O (95:5), 45° C., read-out: Solubility): 48 mg/mL (≈ 103 mM) | solubility at 48 h ([4]; organic solvent or mixture, Acetonitrile (ACN), 15° C., read-out: Solubility): < 1 mg/mL | solubility at 48 h ([4]; organic solvent or mixture, Acetonitrile (ACN), 45° C., read-out: Solubility): 1 mg/mL (≈ 2.14 mM) | solubility at 48 h ([4]; organic solvent or mixture, DCM, temperature not stated, read-out: Solubility (less soluble)): < 1 mg/mL | solubility at 48 h ([4]; organic solvent or mixture, DMA, temperature not stated, read-out: Solubility (freely soluble)): > 100 mg/mL | solubility at 48 h ([4]; organic solvent or mixture, Dimethylacetamide (DMA), 15° C., read-out: Solubility): > 100 mg/mL | solubility at 48 h ([4]; organic solvent or mixture, Dimethylacetamide (DMA), 45° C., read-out: Solubility): > 100 mg/mL | solubility at 48 h ([4]; organic solvent or mixture, EtOAc, temperature not stated, read-out: Solubility (less soluble)): < 1 mg/mL | solubility at 48 h ([4]; organic solvent or mixture, EtOH, temperature not stated, read-out: Solubility (moderately soluble)): 10 to 55 mg/mL (≈ 21.4 to 118 mM) | solubility at 48 h ([4]; organic solvent or mixture, EtOH:H2O (95:5), 15° C., read-out: Solubility): 18 mg/mL (≈ 38.5 mM) | solubility at 48 h ([4]; organic solvent or mixture, EtOH:H2O (95:5), 45° C., read-out: Solubility): 53 mg/mL (≈ 113 mM) | solubility at 48 h ([4]; organic solvent or mixture, Ethanol (EtOH), 15° C., read-out: Solubility): 11 mg/mL (≈ 23.5 mM) | solubility at 48 h ([4]; organic solvent or mixture, Ethanol (EtOH), 45° C., read-out: Solubility): 39 mg/mL (≈ 83.3 mM) | solubility at 48 h ([4]; organic solvent or mixture, Ethyl acetate (EtOAc), 15° C., read-out: Solubility): < 1 mg/mL | solubility at 48 h ([4]; organic solvent or mixture, Ethyl acetate (EtOAc), 45° C., read-out: Solubility): 1 mg/mL (≈ 2.14 mM) | solubility at 48 h ([4]; organic solvent or mixture, Heptane (HEP), 15° C., read-out: Solubility): < 1 mg/mL | solubility at 48 h ([4]; organic solvent or mixture, Heptane (HEP), 45° C., read-out: Solubility): < 1 mg/mL | solubility at 48 h ([4]; organic solvent or mixture, IPA, temperature not stated, read-out: Solubility (slightly soluble)): ~2 mg/mL (≈ 4.27 mM) | solubility at 48 h ([4]; organic solvent or mixture, Isopropanol (IPA), 15° C., read-out: Solubility): 1 mg/mL (≈ 2.14 mM) | solubility at 48 h ([4]; organic solvent or mixture, Isopropanol (IPA), 45° C., read-out: Solubility): 12 mg/mL (≈ 25.6 mM) | solubility at 48 h ([4]; organic solvent or mixture, MeOH, temperature not stated, read-out: Solubility (freely soluble)): > 100 mg/mL | solubility at 48 h ([4]; organic solvent or mixture, Methanol (MeOH), 15° C., read-out: Solubility): 11 mg/mL (≈ 23.5 mM) | solubility at 48 h ([4]; organic solvent or mixture, Methanol (MeOH), 45° C., read-out: Solubility): > 100 mg/mL | solubility at 48 h ([4]; organic solvent or mixture, TBME, temperature not stated, read-out: Solubility (less soluble)): < 1 mg/mL | solubility at 48 h ([4]; organic solvent or mixture, TFE, temperature not stated, read-out: Solubility (freely soluble)): > 100 mg/mL | solubility at 48 h ([4]; organic solvent or mixture, THF, temperature not stated, read-out: Solubility (moderately soluble)): 10 to 55 mg/mL (≈ 21.4 to 118 mM) | solubility at 48 h ([4]; organic solvent or mixture, Tert-butyl methyl ether (TBME), 15° C., read-out: Solubility): < 1 mg/mL | solubility at 48 h ([4]; organic solvent or mixture, Tert-butyl methyl ether (TBME), 45° C., read-out: Solubility): 2 mg/mL (≈ 4.27 mM) | solubility at 48 h ([4]; organic solvent or mixture, Tetrahydrofuran (THF), 15° C., read-out: Solubility): 13 mg/mL (≈ 27.8 mM) | solubility at 48 h ([4]; organic solvent or mixture, Tetrahydrofuran (THF), 45° C., read-out: Solubility): 50 mg/mL (≈ 107 mM) | solubility at 48 h ([4]; organic solvent or mixture, acetone, temperature not stated, read-out: Solubility (slightly soluble)): ~2 mg/mL (≈ 4.27 mM) | solubility at 48 h ([4]; organic solvent or mixture, acetonitrile, temperature not stated, read-out: Solubility (less soluble)): < 1 mg/mL | solubility at 48 h ([4]; organic solvent or mixture, heptane, temperature not stated, read-out: Solubility (less soluble)): < 1 mg/mL | solubility at 48 h ([4]; Water (H2O), 15° C., read-out: Solubility): < 1 mg/mL | solubility at 48 h ([4]; Water (H2O), 45° C., read-out: Solubility): < 1 mg/mL | solubility at 48 h ([4]; water, temperature not stated, read-out: Solubility (less soluble)): < 1 mg/mL | solubility at 48 h ([4]; trifluoroethanol (TFE), organic solvent or mixture, Trifluoro Ethanol (TFE), 15° C., read-out: Solubility): > 100 mg/mL | solubility at 48 h ([4]; trifluoroethanol (TFE), organic solvent or mixture, Trifluoro Ethanol (TFE), 45° C., read-out: Solubility): > 100 mg/mL | Moisture uptake (DVS) [5]: less than 0.2%

O=C(CCCCCCNC(=O)c1cnc(N(c2ccccc2)c2ccccc2Cl)nc1)NO [Form II, 2-((2-chlorophenyl)(phenyl)amino)-N-(7-(hydroxyamino)-7-oxoheptyl)pyrimidine-5-carboxamide]
Post DVS XRPD (crystalline form after DVS) [1]: Pattern D, | Post DVS XRPD (crystalline form after DVS) ([1]; listed as Pattern B): Pattern D | Weight change (DVS) [1, 7]: < 1% | XRPD pattern after drying at 45° C. (under vacuum) [3]: Pattern D, | XRPD pattern after drying at 45° C. (under vacuum) ([3]; listed as Pattern B): Pattern D | XRPD pattern after heating ([6]; 130° C. for 30 minutes): Pattern A

O=C(CCCCCCNC(=O)c1cnc(N(c2ccccc2)c2ccccc2Cl)nc1)NO [Form III, 2-((2-chlorophenyl)(phenyl)amino)-N-(7-(hydroxyamino)-7-oxoheptyl)pyrimidine-5-carboxamide]
Post DVS XRPD (crystalline form after DVS) [1]: Pattern D, | Post DVS XRPD (crystalline form after DVS) ([1]; listed as Pattern C): Pattern D | Weight change (DVS) [1, 7]: around 1.5% | XRPD pattern after drying at 45° C. (under vacuum) [3]: Pattern D, | XRPD pattern after drying at 45° C. (under vacuum) ([3]; listed as Pattern C): Pattern D

O=C(CCCCCCNC(=O)c1cnc(N(c2ccccc2)c2ccccc2Cl)nc1)NO [Form IX, 2-((2-chlorophenyl)(phenyl)amino)-N-(7-(hydroxyamino)-7-oxoheptyl)pyrimidine-5-carboxamide]
Post DVS XRPD (crystalline form after DVS) [1]: Pattern D, | Post DVS XRPD (crystalline form after DVS) ([1]; listed as Pattern I): Pattern D | XRPD pattern after drying at 45° C. (under vacuum) [3]: Pattern D (Form IV) | XRPD pattern after drying at 45° C. (under vacuum) ([3]; listed as Pattern I): Pattern D

O=C(CCCCCCNC(=O)c1cnc(N(c2ccccc2)c2ccccc2Cl)nc1)NO [Form V, 2-((2-chlorophenyl)(phenyl)amino)-N-(7-(hydroxyamino)-7-oxoheptyl)pyrimidine-5-carboxamide]
Post DVS XRPD (crystalline form after DVS) [1]: Pattern F, Form VI | Post DVS XRPD (crystalline form after DVS) ([1]; listed as Pattern E): Pattern F | Moisture uptake (DVS) [1, 7]: < 0.15% | Form change after exposing the dried sample to high humidity conditions (XRPD) [3]: no further form change | XRPD pattern after drying at 45° C. (under vacuum) [3]: Form VI, Pattern F | XRPD pattern after drying at 45° C. (under vacuum) ([3]; listed as Pattern E): Pattern F (Form VI)

O=C(CCCCCCNC(=O)c1cnc(N(c2ccccc2)c2ccccc2Cl)nc1)NO [Form VII, 2-((2-chlorophenyl)(phenyl)amino)-N-(7-(hydroxyamino)-7-oxoheptyl)pyrimidine-5-carboxamide]
Post DVS XRPD (crystalline form after DVS) [1]: Pattern H, | Post DVS XRPD (crystalline form after DVS) ([1]; listed as Pattern G): Pattern H | Form change after exposing the dried sample to high humidity conditions (XRPD) [3]: no further form change | XRPD pattern after drying at 45° C. (under vacuum) [3]: Form VIII (Pattern H) | XRPD pattern after drying at 45° C. (under vacuum) ([3]; listed as Pattern G): Pattern H

O=C(CCCCCCNC(=O)c1cnc(N(c2ccccc2)c2ccccc2Cl)nc1)NO [Pattern J]
XRPD pattern after drying at 45° C. (under vacuum) [3]: Pattern A | XRPD pattern after storage ([6]; room temperature, reanalyzed after three days): Pattern A

Source: patent publication US10464906B2, “Crystalline forms of a histone deacetylase inhibitor” (Acetylon Pharmaceuticals, Inc., priority 2015, dated 2019)
